According to ChEMBL document CHEMBL1201862, “PubChem BioAssay data set” (2004):
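Cells were grown in 96-well plates and exposed to each compound for 48 hours at five concentrations; endpoints were interpolated linearly between bracketing concentrations, or set to the highest concentration if not reached. Here, GI50 denotes the concentration required for 50% inhibition of growth.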 Activity calls are given as the source filed them. Cut-off read from the data, not from the text of the source: active = GI50 up to about 1.1 µM and inactive = higher.

How the values were obtained:
Assay in all cases: growth of human tumour cells (NCI), 48 h
NCI-H522 = test system: NCI-H522
NCI-H226 = test system: NCI-H226
SNB-75 = test system: SNB-75
IGROV-1 = test system: IGROV-1
UACC-62 = test system: UACC-62
RPMI-8226 = test system: RPMI-8226
K562 = test system: K562
CAKI-1 = test system: CAKI-1
U-251 = test system: U-251
DMS-114 = test system: DMS-114
UO-31 = test system: UO-31
MCF7 = test system: MCF7
LOX IMVI = test system: LOX IMVI
CCRF-CEM = test system: CCRF-CEM
EKVX = test system: EKVX
HT-29 = test system: HT-29
SF-268 = test system: SF-268
Malme-3M = test system: Malme-3M
HL-60 = test system: HL-60
SF-539 = test system: SF-539

| Compound | GI50 (NCI-H522) | GI50 (NCI-H226) | GI50 (SNB-75) | GI50 (IGROV-1) | GI50 (UACC-62) | GI50 (RPMI-8226) | GI50 (K562) | GI50 (CAKI-1) | GI50 (U-251) | GI50 (DMS-114) | GI50 (UO-31) | GI50 (MCF7) | GI50 (LOX IMVI) | GI50 (CCRF-CEM) | GI50 (EKVX) | GI50 (HT-29) | GI50 (SF-268) | GI50 (Malme-3M) | GI50 (HL-60) | GI50 (SF-539) |
| --- | --- | --- | --- | --- | --- | --- | --- | --- | --- | --- | --- | --- | --- | --- | --- | --- | --- | --- | --- | --- |
| O=NN(CCCl)C(=O)Nc1ccc(Cl)c(Cl)c1 | 28.3 µM (inactive) | 46.6 µM (inactive) | > 100 µM (inactive) | > 56.5 µM (inactive) | 45.9 µM (inactive) | 50 µM (inactive) | 36.9 µM (inactive) | 81.1 µM (inactive) | 52 µM (inactive) | 6.67 µM (inactive) | 45.7 µM (inactive) | 38.5 µM (inactive) | 78.5 µM (inactive) | 59.8 µM (inactive) | 46.9 µM (inactive) | 76.6 µM (inactive) | 31.6 µM (inactive) | > 100 µM (inactive) | > 100 µM (inactive) | > 91.2 µM (inactive) |
| CC(=O)Nc1ccc2oc(=O)c3ccccc3c2c1 | > 100 µM (inactive) | > 100 µM (inactive) | > 100 µM (inactive) | > 100 µM (inactive) | 50.9 µM (inactive) | > 100 µM (inactive) | > 100 µM (inactive) | > 100 µM (inactive) | > 100 µM (inactive) |  | > 100 µM (inactive) | > 100 µM (inactive) | > 100 µM (inactive) | > 100 µM (inactive) | > 100 µM (inactive) | > 100 µM (inactive) | > 100 µM (inactive) | > 100 µM (inactive) | > 100 µM (inactive) | > 100 µM (inactive) |
| CC(C)[C@](O)(C(=O)OCC1CC[N+]2([O-])CC[C@@H](O)C12)[C@H](C)O (stereo partly specified) | > 375 µM (inactive) | > 375 µM (inactive) | 126 µM (inactive) | > 375 µM (inactive) | > 375 µM (inactive) | > 375 µM (inactive) | > 375 µM (inactive) | > 375 µM (inactive) | > 375 µM (inactive) | > 375 µM (inactive) | > 375 µM (inactive) | > 375 µM (inactive) | > 142 µM (inactive) | > 375 µM (inactive) | > 375 µM (inactive) | > 375 µM (inactive) | > 375 µM (inactive) | > 255 µM (inactive) | > 375 µM (inactive) | > 375 µM (inactive) |
| CCOC(=O)CN1CCS/C1=N/C#N | > 100 µM (inactive) | > 100 µM (inactive) | > 100 µM (inactive) | > 100 µM (inactive) | > 100 µM (inactive) | > 100 µM (inactive) | > 100 µM (inactive) | > 100 µM (inactive) | > 100 µM (inactive) | > 100 µM (inactive) | > 100 µM (inactive) | > 100 µM (inactive) |  | > 100 µM (inactive) | > 100 µM (inactive) | > 42.4 µM (inactive) | > 100 µM (inactive) | > 100 µM (inactive) | > 100 µM (inactive) | > 100 µM (inactive) |
| Cc1cn(C2CC(O)C(Cn3cc(Cn4nc(Br)c(=O)[nH]c4=O)nn3)O2)c(=O)[nH]c1=O (stereo unspecified) |  | > 100 µM (inactive) | > 100 µM (inactive) |  | > 100 µM (inactive) | > 100 µM (inactive) |  | > 100 µM (inactive) | > 100 µM (inactive) |  | > 100 µM (inactive) | > 100 µM (inactive) |  | 0.332 µM (active) | > 100 µM (inactive) |  | > 100 µM (inactive) | 78 µM (inactive) |  | > 100 µM (inactive) |
| C[N+](C)(CCO)CCN1c2ccccc2Sc2ccccc21 | > 10 µM (inactive) | > 10 µM (inactive) | > 10 µM (inactive) | > 10 µM (inactive) | > 10 µM (inactive) | > 10 µM (inactive) | > 10 µM (inactive) | > 10 µM (inactive) | > 10 µM (inactive) |  | 3.52 µM (inactive) | > 10 µM (inactive) | > 10 µM (inactive) | > 10 µM (inactive) | > 10 µM (inactive) | > 10 µM (inactive) | > 10 µM (inactive) | > 10 µM (inactive) | > 10 µM (inactive) | > 10 µM (inactive) |
| COc1ccc2c(c1)c1c(n2CCN2CCCCC2)-c2cccc(OC)c2CC1 | 3.82 µM (inactive) | 10 µM (inactive) | 18.5 µM (inactive) | 13.4 µM (inactive) | 14.2 µM (inactive) | 11.5 µM (inactive) | 9.04 µM (inactive) | 16.4 µM (inactive) | 13.1 µM (inactive) |  | 10.4 µM (inactive) | 15.5 µM (inactive) | 16.1 µM (inactive) | 4.27 µM (inactive) | 19.6 µM (inactive) | 4.58 µM (inactive) | 19.7 µM (inactive) |  |  |  |
| COC1CCC(CO)OO1 (stereo unspecified) | 12.9 µM (inactive) |  | 43.9 µM (inactive) | 26.4 µM (inactive) | 70.3 µM (inactive) | 19.1 µM (inactive) | 4.73 µM (inactive) |  | 4.57 µM (inactive) | 15.3 µM (inactive) | 35.1 µM (inactive) |  |  | 13.9 µM (inactive) |  | 28.9 µM (inactive) | 35.8 µM (inactive) | 59.7 µM (inactive) | 18.4 µM (inactive) | 27.7 µM (inactive) |
| CC(=O)NC(CCCCNC(=O)OC(C)(C)C)C(=O)O (stereo unspecified) | > 100 µM (inactive) |  |  | > 100 µM (inactive) | > 100 µM (inactive) | > 100 µM (inactive) | > 100 µM (inactive) | 63.4 µM (inactive) | > 100 µM (inactive) |  | > 100 µM (inactive) | > 100 µM (inactive) | > 100 µM (inactive) | > 100 µM (inactive) | > 100 µM (inactive) | > 100 µM (inactive) | > 100 µM (inactive) | > 100 µM (inactive) | > 100 µM (inactive) |  |
| O=C1OC2CC=CC1C2 (stereo unspecified) | > 100 µM (inactive) | > 100 µM (inactive) | > 100 µM (inactive) | > 100 µM (inactive) | > 100 µM (inactive) | > 100 µM (inactive) | > 100 µM (inactive) |  | > 100 µM (inactive) | > 100 µM (inactive) | > 100 µM (inactive) | > 100 µM (inactive) | > 100 µM (inactive) | > 100 µM (inactive) | > 100 µM (inactive) | > 100 µM (inactive) | > 100 µM (inactive) | > 100 µM (inactive) | > 100 µM (inactive) | > 100 µM (inactive) |
| COc1ccc(C[C@H](N)C(=O)N2C[C@@H](CO)C[C@@H](n3cnc4c(N(C)C)ncnc43)C2)cc1 | > 100 µM (inactive) |  |  | > 100 µM (inactive) | > 100 µM (inactive) | > 100 µM (inactive) | > 100 µM (inactive) | > 100 µM (inactive) | > 100 µM (inactive) | > 100 µM (inactive) | > 100 µM (inactive) |  | > 100 µM (inactive) | > 100 µM (inactive) | > 100 µM (inactive) | > 100 µM (inactive) | > 100 µM (inactive) | > 100 µM (inactive) | > 100 µM (inactive) | > 100 µM (inactive) |
| CSC1=C(SC)C(=O)c2cn(C)c(=O)cc2C1=O | 0.853 µM (active) | 19.9 µM (inactive) | 8.67 µM (inactive) | 11.1 µM (inactive) | 2.7 µM (inactive) | 2.4 µM (inactive) | 0.399 µM (active) |  | 10.2 µM (inactive) |  | 1.75 µM (inactive) | 2.05 µM (inactive) | 1.78 µM (inactive) | 0.245 µM (active) | 18.3 µM (inactive) | 6.14 µM (inactive) | 11.8 µM (inactive) | 2.24 µM (inactive) | 0.0731 µM (active) | 9.82 µM (inactive) |
| COc1ccc(NC(=S)NNC(=O)c2nsc3ccccc23)cc1 |  |  | 24.9 µM (inactive) | 35.1 µM (inactive) | 27.7 µM (inactive) | 22.3 µM (inactive) | 30.9 µM (inactive) |  | 40.8 µM (inactive) | 32.1 µM (inactive) | 25.2 µM (inactive) |  | 34.4 µM (inactive) |  | 28.3 µM (inactive) | 45.9 µM (inactive) | 34.4 µM (inactive) |  | 19.9 µM (inactive) | 28.3 µM (inactive) |
| CC(C)(C)[Si](C)(C)OCCCC#CCO | > 100 µM (inactive) |  | > 100 µM (inactive) | > 100 µM (inactive) | > 100 µM (inactive) | 64.9 µM (inactive) | 98.2 µM (inactive) | > 100 µM (inactive) | > 100 µM (inactive) | > 100 µM (inactive) | > 100 µM (inactive) |  | > 100 µM (inactive) | 38.7 µM (inactive) | > 100 µM (inactive) | > 100 µM (inactive) | > 100 µM (inactive) | > 100 µM (inactive) | 25.8 µM (inactive) | > 100 µM (inactive) |
| CSCCC(NOC(=O)Cc1ccccc1)P(=O)(O)c1ccccc1 (stereo unspecified) | > 100 µM (inactive) | > 100 µM (inactive) | > 100 µM (inactive) | > 100 µM (inactive) |  | > 100 µM (inactive) | > 100 µM (inactive) | > 100 µM (inactive) | > 100 µM (inactive) |  | > 100 µM (inactive) | > 100 µM (inactive) | > 100 µM (inactive) | > 100 µM (inactive) |  | > 100 µM (inactive) |  |  | > 100 µM (inactive) |  |
| CCNC(=O)C(C)C1CCC2(C)C=CC(=O)C(C)=C2C1O (stereo unspecified) | > 100 µM (inactive) | > 100 µM (inactive) | > 100 µM (inactive) | 98.4 µM (inactive) | > 100 µM (inactive) | > 100 µM (inactive) | > 100 µM (inactive) | > 100 µM (inactive) | > 76.4 µM (inactive) | > 100 µM (inactive) | > 73.6 µM (inactive) | > 100 µM (inactive) | > 91 µM (inactive) | > 100 µM (inactive) | > 100 µM (inactive) | > 100 µM (inactive) | > 100 µM (inactive) |  | > 100 µM (inactive) | > 100 µM (inactive) |
